Test results: patent US20090178149A1, “Polyamine Sensors and Methods of Using the Same” (priority 2005, published 2009)

Target: FLIP-AF1 biosensor (AF1 protein fused to CFP and YFP Venus) (Agrobacterium fabrum, UniProt A9CK51)
Settings: excitation 433 nm, emission 485/528 nm; 20 mM sodium phosphate buffer, pH 7.0
Experimental: A DNA fragment encoding the mature AF1 protein was fused to CFP and the YFP Venus sequence at the N- and C-termini, respectively. Emission spectra and substrate titration curves were obtained by using monochromator microplate reader Safire (Tecan, Austria). Excitation filter was 433/−12 nm, emission filters for CFP and YFP emission were 485/−12, 528 nm/12 nm, respectively. All analyses were done in 20 mM sodium phosphate buffer, pH 7.0.
The FLIP-AF1 biosensor (see SEQ ID Nos. 3 and 4) was titrated against various putrescine concentrations.

FLIP-AF1 biosensor (AF1 protein fused to CFP and YFP Venus), sequence (A9CK51 27-365): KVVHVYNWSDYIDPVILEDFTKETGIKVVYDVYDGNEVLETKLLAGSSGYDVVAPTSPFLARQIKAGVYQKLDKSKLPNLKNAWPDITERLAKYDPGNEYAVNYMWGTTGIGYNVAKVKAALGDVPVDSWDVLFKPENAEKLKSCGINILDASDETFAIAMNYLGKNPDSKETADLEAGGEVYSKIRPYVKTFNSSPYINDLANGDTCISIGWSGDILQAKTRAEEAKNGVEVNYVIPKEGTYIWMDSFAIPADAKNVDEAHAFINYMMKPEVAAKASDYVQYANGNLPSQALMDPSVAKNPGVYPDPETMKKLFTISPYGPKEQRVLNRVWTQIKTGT

change in CFP/YFP emission (YFP/CFP ratio) on addition of putrescine: decrease in the YFP/CFP ratio
Compound: NCCCCN [putrescine, 1,4-diaminobutane]
